Source: PMC6895203, “Conformational pathway provides unique sensitivity to a synaptic mGluR” (Nature Communications, 2019)
“And” between values parts separate entries of the source, which are not always exact repeats. Equal values may be shown once.

Experiments:
[1] = target: SNAP-mGluR2/SNAP-mGluR2 homodimer (mGluR2/2) (Rattus norvegicus, UniProt P31421); assay: Live-cell ensemble FRET of SNAP-mGluR2/2 homodimer in HEK293T cells; assay type: cell-based; set-up: HA (N); made in house; host or cells: HEK293T; settings: for normalized FRET response (Figure 3c titration), AVG: left block
Method: (§1) After labeling, cells were mounted on an upright, scanning confocal microscope (Zeiss LSM 780) and imaged with a 20X objective. […] Clusters of cells were analyzed together and FRET was calculated as FRET = (IA)/(ID + IA), in which ID is the fluorescence donor intensity and IA is the fluorescence acceptor intensity. […] Fitting of dose–response curves was performed using Prism (Graphpad). […] Drugs were delivered with a gravity-driven perfusion system.

mGluR5/mGluR5(YADA) = settings: cited from earlier work
SNAP-mGluR4/4 homodimer = target: T1, SNAP-mGluR4/4 homodimer (Rattus norvegicus, UniProt P31423); assay: Live-cell ensemble FRET of SNAP-mGluR4/4 homodimer in HEK293 cells; assay type: cell-based
T1 construct: HA (N); expressed in transfected cells; host or cells: HEK293 / HEK293T
Method: as §1

[2] = target: T2, CLIP-mGluR3/SNAP-mGluR7 heterodimer (mGluR3/7) (Rattus norvegicus, UniProt P31422+P35400); assay: smFRET on CLIP-mGluR3/SNAP-mGluR7 heterodimers; assay type: biochemical; settings: for smFRET histogram value: 10uM Glu
T2 construct: Flag (N); HA (N); made in house; host or cells: HEK293T
Method: Samples were prepared in the same manner as for mGluR2/7 heterodimers and imaged in smFRET.
(100 ms time resolution).

mGluR7(K319C) = target: T3, mGluR7(K319C) (Rattus norvegicus, UniProt P35400, K319C); assay type: cell-based; settings: vs wild-type mGluR7
T3 construct: expressed in transfected cells; host or cells: HEK293 / HEK293T
Text: (§2) Illumination was applied to the entire field of view using either a Polychrome V monochromator (TILL Photonics) through a 20× objective, or a Lambda DG4 high-speed wavelength switcher (Sutter Instruments) with 380 nm and 500 nm filters through a 40× objective. pClamp software was used for both data acquisition and control of illumination.

[3] = target: SNAP-mGluR7/SNAP-mGluR7 homodimer (mGluR7/7) (Rattus norvegicus, UniProt P35400); assay: Live-cell ensemble FRET of SNAP-mGluR7/7 homodimer in HEK293T cells; assay type: cell-based; set-up: HA (N); made in house; host or cells: HEK293T
Method: as §1

[4] = target: T4, SNAP-mGluR2(F756D)/mGluR7 heterodimer (Rattus norvegicus, UniProt P31421+P35400, F756D); assay: Whole-cell patch clamp of GIRK1 current, trans-activation in SNAP-mGluR2(F756D)/mGluR7; assay type: cell-based; settings: for glutamate GIRK concentration-response relation compared to mGluR2/2: patch clamp
T4 construct: HA (N); expressed in transfected cells; host or cells: HEK293 / HEK293T
Text: We explored this further by examining trans-activation, whereby binding of ligand to one subunit activates G-protein interaction in the partner subunit[46],[47]. To specifically activate only the mGluR2 subunit of the mGluR2/7 heterodimer, we selectively attached a photoswitched tethered ligand to mGluR2. […] SNAP-mGluR2(F756D) was co-expressed with wild-type mGluR7 along with the GIRK1 channel.
as §2

[5] = target: CLIP-mGluR2/SNAP-mGluR7 heterodimer (mGluR2/7) (Rattus norvegicus, UniProt P31421+P35400); assay: smFRET on isolated CLIP-mGluR2/SNAP-mGluR7 heterodimers
CLIP-mGluR2/SNAP-mGluR7 heterodimer (mGluR2/7), sequence (P31421 19-872): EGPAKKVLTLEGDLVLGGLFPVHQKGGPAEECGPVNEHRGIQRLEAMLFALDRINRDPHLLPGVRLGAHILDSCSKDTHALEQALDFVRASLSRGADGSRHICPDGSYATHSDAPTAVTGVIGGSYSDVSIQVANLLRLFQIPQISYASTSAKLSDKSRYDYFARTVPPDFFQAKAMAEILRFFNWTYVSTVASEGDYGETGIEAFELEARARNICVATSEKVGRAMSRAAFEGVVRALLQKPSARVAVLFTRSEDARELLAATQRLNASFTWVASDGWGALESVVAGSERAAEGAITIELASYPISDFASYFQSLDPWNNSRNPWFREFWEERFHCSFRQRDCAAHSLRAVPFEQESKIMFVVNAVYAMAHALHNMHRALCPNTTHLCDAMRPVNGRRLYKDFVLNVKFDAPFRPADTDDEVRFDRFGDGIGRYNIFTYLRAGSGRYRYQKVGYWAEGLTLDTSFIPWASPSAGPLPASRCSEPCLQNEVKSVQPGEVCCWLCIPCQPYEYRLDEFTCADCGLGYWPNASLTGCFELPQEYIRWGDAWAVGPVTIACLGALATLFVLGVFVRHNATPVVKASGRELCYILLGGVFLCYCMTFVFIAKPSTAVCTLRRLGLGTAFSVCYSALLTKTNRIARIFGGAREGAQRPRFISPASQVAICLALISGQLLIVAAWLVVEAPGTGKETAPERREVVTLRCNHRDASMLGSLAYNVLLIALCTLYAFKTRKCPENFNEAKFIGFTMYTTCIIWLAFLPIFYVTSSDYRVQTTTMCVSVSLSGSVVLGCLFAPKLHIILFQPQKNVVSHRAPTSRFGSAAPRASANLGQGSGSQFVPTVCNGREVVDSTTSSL
CLIP-mGluR2/SNAP-mGluR7 heterodimer (mGluR2/7), sequence (P35400 35-915): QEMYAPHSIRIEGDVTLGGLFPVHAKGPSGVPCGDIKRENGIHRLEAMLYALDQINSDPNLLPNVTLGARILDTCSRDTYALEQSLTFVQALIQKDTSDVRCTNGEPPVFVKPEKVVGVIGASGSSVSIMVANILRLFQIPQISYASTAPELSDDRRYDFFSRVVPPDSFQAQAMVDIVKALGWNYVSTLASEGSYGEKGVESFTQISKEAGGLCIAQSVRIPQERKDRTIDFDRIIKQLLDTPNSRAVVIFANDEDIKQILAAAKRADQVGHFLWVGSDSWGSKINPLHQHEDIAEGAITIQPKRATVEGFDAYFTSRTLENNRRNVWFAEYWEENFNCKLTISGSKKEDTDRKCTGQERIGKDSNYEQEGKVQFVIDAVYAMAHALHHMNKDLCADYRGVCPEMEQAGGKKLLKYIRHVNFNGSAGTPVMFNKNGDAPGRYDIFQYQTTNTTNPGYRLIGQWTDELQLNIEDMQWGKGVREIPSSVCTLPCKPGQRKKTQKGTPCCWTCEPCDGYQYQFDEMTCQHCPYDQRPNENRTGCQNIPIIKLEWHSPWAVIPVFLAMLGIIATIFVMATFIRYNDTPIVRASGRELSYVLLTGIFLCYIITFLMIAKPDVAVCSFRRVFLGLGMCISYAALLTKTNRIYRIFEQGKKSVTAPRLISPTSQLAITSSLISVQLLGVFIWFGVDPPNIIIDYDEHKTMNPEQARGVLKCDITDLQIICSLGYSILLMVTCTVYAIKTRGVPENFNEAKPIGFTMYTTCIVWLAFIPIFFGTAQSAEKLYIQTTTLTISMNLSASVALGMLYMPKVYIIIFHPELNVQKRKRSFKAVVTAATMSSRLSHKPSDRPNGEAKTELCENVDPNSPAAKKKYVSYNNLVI

T1 sequence (P31423 33-912): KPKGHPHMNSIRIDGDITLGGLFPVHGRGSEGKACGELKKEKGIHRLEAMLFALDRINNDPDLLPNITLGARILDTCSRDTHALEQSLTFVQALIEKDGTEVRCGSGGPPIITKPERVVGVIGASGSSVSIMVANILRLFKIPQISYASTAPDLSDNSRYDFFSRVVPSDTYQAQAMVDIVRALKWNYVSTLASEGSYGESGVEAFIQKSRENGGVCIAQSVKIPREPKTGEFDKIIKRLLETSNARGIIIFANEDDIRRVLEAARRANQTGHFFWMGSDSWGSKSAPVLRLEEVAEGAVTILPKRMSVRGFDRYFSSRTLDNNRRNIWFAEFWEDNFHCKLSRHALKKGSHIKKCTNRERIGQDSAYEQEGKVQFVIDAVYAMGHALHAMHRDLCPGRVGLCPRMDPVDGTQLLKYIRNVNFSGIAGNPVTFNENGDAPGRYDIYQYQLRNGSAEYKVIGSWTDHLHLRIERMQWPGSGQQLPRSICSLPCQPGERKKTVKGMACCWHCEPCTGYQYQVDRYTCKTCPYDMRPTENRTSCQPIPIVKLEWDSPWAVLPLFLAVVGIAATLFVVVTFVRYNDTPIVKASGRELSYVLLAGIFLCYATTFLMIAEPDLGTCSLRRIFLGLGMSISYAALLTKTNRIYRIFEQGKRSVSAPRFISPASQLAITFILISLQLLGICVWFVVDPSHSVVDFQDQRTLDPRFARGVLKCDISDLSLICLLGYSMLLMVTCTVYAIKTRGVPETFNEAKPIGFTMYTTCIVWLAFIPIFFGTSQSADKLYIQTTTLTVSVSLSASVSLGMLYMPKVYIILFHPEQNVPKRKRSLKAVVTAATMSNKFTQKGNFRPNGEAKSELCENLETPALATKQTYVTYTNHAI
T2 sequence (P31422 23-879): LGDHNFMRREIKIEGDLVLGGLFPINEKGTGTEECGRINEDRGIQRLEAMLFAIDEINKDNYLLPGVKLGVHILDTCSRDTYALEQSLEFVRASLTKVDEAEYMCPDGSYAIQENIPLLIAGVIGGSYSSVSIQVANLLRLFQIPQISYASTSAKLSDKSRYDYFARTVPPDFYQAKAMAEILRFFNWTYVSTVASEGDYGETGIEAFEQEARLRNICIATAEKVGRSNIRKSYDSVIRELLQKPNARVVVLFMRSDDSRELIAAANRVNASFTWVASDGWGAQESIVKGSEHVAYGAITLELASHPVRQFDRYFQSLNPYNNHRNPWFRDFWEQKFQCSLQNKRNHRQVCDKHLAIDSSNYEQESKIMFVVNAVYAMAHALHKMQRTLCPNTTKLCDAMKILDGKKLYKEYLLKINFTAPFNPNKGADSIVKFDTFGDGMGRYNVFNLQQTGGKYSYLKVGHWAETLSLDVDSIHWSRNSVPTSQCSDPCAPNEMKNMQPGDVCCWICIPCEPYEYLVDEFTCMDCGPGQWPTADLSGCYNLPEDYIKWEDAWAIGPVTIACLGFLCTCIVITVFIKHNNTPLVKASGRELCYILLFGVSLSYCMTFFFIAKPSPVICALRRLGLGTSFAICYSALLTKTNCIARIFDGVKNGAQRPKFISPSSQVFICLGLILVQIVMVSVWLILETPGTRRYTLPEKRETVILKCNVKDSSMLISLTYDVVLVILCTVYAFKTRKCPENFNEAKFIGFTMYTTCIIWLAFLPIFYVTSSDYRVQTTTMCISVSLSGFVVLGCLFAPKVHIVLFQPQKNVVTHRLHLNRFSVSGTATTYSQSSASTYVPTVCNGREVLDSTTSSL
T2 sequence (P35400 35-915): as the sequence (P35400 35-915) above
SNAP-mGluR2/SNAP-mGluR2 homodimer (mGluR2/2), sequence (P31421 19-872): as the sequence (P31421 19-872) above
T4 sequence (P31421 19-872 F756D): as the sequence (P31421 19-872) above, with F738D counted along it
T4 sequence (P35400 35-915): as the sequence (P35400 35-915) above
SNAP-mGluR7/SNAP-mGluR7 homodimer (mGluR7/7), sequence (P35400 35-915): as above
T3 sequence (P35400 35-915 K319C): as the sequence (P35400 35-915) above, with K285C counted along it

For `N[C@@H](CCC(=O)O)C(=O)O` [glutamate], the “fractional change in FRET (Figure 1c), Average” value ([1]; 1 mM glutamate, live cells) was 0.0345, the “normalized FRET response (Figure 3c titration), AVG” value (“normalized FRET response” for short) ([1]; Glu 1uM, normalized to 10 mM) was 0.02436 and the “normalized FRET response” value ([1]; Glu 5uM) was 0.1119. The “normalized FRET response” value ([1]; Glu 10uM) was 0.2744, the “normalized FRET response” value ([1]; Glu 20uM) was 0.534 and the “normalized FRET response” value ([1]; Glu 50uM) was 0.7966. The “normalized FRET response” value ([1]; Glu 100uM) was 0.8891, the “normalized FRET response” value ([1]; Glu 200uM) was 0.9536 and the “normalized FRET response” value ([1]; Glu 500uM) was 0.9786. The “normalized FRET response” value ([1]; Glu 1mM) was 0.9832, the “normalized FRET response” value ([1]; Glu 10mM (normalization point)) was 1 and the “first low glutamate concentration component, share of maximal activation” value (mGluR5/mGluR5(YADA)) was ~ 20%. For the same compound, the “titration values, single replicates 1-3” value (SNAP-mGluR4/4 homodimer; Glu 1e-8, individual replicates) was 0, the “titration values, AVG (normalized response)” value (SNAP-mGluR4/4 homodimer; Glu 1e-7) was 0.0203 and the “titration values, single replicates 1-3” value (SNAP-mGluR4/4 homodimer; Glu 1e-7, individual replicates, listed as Glu) was 0.03656 and 0.01694 and 0.007398. The “titration values, AVG (normalized response)” value (SNAP-mGluR4/4 homodimer; Glu 1e-6) was 0.0444, the “titration values, single replicates 1-3” value (SNAP-mGluR4/4 homodimer; Glu 1e-6, individual replicates, listed as Glu) was 0.05482 and 0.03845 and 0.03991 and the “titration values, AVG (normalized response)” value (SNAP-mGluR4/4 homodimer; Glu 1e-5) was 0.4393. The “titration values, single replicates 1-3” value (SNAP-mGluR4/4 homodimer; Glu 1e-5, individual replicates, listed as Glu) was 0.4343 and 0.4025 and 0.481, the “titration values, AVG (normalized response)” value (SNAP-mGluR4/4 homodimer; Glu 0.0001) was 0.8959 and the “titration values, single replicates 1-3” value (SNAP-mGluR4/4 homodimer; Glu 0.0001, individual replicates, listed as Glu) was 0.9016 and 0.8805 and 0.9055. The “titration values, AVG (normalized response)” value (SNAP-mGluR4/4 homodimer; Glu 0.001 (normalisation point)) was 1, the “titration values, single replicates 1-3” value (SNAP-mGluR4/4 homodimer; Glu 0.001 (normalisation point), individual replicates) was 1 and the smFRET histogram value ([2]; FRET bin 0) was 5.12E-04. It also gave a smFRET histogram value ([2]; FRET bin 0.02) of 0.00118, a smFRET histogram value ([2]; FRET bin 0.04) of 0.00527 and a smFRET histogram value ([2]; FRET bin 0.06) of 0.01241. It also gave a smFRET histogram value ([2]; FRET bin 0.08) of 0.03308, a smFRET histogram value ([2]; FRET bin 0.1) of 0.05942 and a smFRET histogram value ([2]; FRET bin 0.12) of 0.08729. It also gave a smFRET histogram value ([2]; FRET bin 0.14) of 0.111, a smFRET histogram value ([2]; FRET bin 0.16) of 0.1262 and a smFRET histogram value ([2]; FRET bin 0.18) of 0.1233. The smFRET histogram value ([2]; FRET bin 0.2) was 0.1027, the smFRET histogram value ([2]; FRET bin 0.22) was 0.08729 and the smFRET histogram value ([2]; FRET bin 0.24) was 0.06369. The smFRET histogram value ([2]; FRET bin 0.26) was 0.04632, the smFRET histogram value ([2]; FRET bin 0.28) was 0.03089 and the smFRET histogram value ([2]; FRET bin 0.3) was 0.01963. The smFRET histogram value ([2]; FRET bin 0.32) was 0.01469, the smFRET histogram value ([2]; FRET bin 0.34) was 0.01371 and the smFRET histogram value ([2]; FRET bin 0.36) was 0.01107. For the same compound, the smFRET histogram value ([2]; FRET bin 0.38) was 0.01037, the smFRET histogram value ([2]; FRET bin 0.4) was 0.00851 and the smFRET histogram value ([2]; FRET bin 0.42) was 0.00558. The smFRET histogram value ([2]; FRET bin 0.44) was 0.00425, the smFRET histogram value ([2]; FRET bin 0.46) was 0.00239 and the smFRET histogram value ([2]; FRET bin 0.48) was 0.00285. It also gave a smFRET histogram value ([2]; FRET bin 0.5) of 0.00309, a smFRET histogram value ([2]; FRET bin 0.52) of 0.00461 and a smFRET histogram value ([2]; FRET bin 0.54) of 0.00369. The smFRET histogram value ([2]; FRET bin 0.56) was 0.00265, the smFRET histogram value ([2]; FRET bin 0.58) was 0.00122 and the smFRET histogram value ([2]; FRET bin 0.6) was 7.52E-04. The smFRET histogram value ([2]; FRET bin 0.62) was 8.08E-05, the smFRET histogram value ([2]; FRET bin 0.64) was 4.04E-05 and the smFRET histogram value ([2]; FRET bin 0.66) was 1.92E-05. For the same compound, the smFRET histogram value ([2]; FRET bin 0.68) was 1.92E-05, the smFRET histogram value ([2]; FRET bin 0.7) was 6.75E-05 and the smFRET histogram value ([2]; FRET bin 0.72) was 4.04E-05. The smFRET histogram value ([2]; FRET bin 0.74) was 7.95E-06, the smFRET histogram value ([2]; FRET bin 0.76) was 1.62E-04 and the smFRET histogram value ([2]; FRET bin 0.78) was 4.04E-05. The smFRET histogram value ([2]; FRET bin 0.8) was 0, the smFRET histogram value ([2]; FRET bin 0.82) was 0 and the smFRET histogram value ([2]; FRET bin 0.84) was 0. It also gave a smFRET histogram value ([2]; FRET bin 0.86) of 0, a smFRET histogram value ([2]; FRET bin 0.88) of 0 and a smFRET histogram value ([2]; FRET bin 0.9) of 0. It also gave a smFRET histogram value ([2]; FRET bin 0.92) of 0, a smFRET histogram value ([2]; FRET bin 0.94) of 0 and a smFRET histogram value ([2]; FRET bin 0.96) of 0. The smFRET histogram value ([2]; FRET bin 0.98) was 0, the smFRET histogram value ([2]; FRET bin 1) was 0 and the active state occupancy ([2]; 10 μM glutamate) was ~ 95%. The “effect of K319C mutation on apparent affinity for glutamate (GIRK current)” value (mGluR7(K319C)) was “did not alter the apparent affinity”, the FRET decrease ([3]; 10 mM glutamate, live HEK293T cells) was “barely measurable FRET decrease” and the “fractional change in FRET (Figure 1c), Average” value ([3]; 10 mM glutamate, live cells) was 0.002. The “glutamate concentration required for a measurable response” value ([3]; live-cell ensemble FRET) was 10 mM, the FRET change ([3]; up to 1 mM glutamate, live HEK293T cells) was “no detectable FRET change” and the “Norm. (100 nM Glu), average” value ([4]; 100 nM Glu normalised to 1 mM Glu, average of cells) was 0.158. The “Norm. (1 uM Glu), average” value ([4]; 1 uM Glu normalised to 1 mM Glu, average of cells) was 0.4678, the “Norm. (1 uM Glu)” value ([4]; 1 uM Glu normalised to 1 mM Glu, single cells, listed as Glu) was 0.3693 and 0.5844 and 0.4728 and 0.4449 and the “Norm. (10 uM), average” value ([4]; 10 uM Glu normalised to 1 mM Glu, average of cells) was 0.7782. The “Norm. (10 uM)” value ([4]; 10 uM Glu normalised to 1 mM Glu, single cells, listed as Glu) was 0.7837 and 0.9099 and 0.6409, the “Norm. (100 uM), average” value ([4]; 100 uM Glu normalised to 1 mM Glu, average of cells) was 0.9915 and the “Norm. (100 uM)” value ([4]; 100 uM Glu normalised to 1 mM Glu, single cells, listed as Glu) was 1.055 and 0.9085 and 1.011. The “glutamate GIRK concentration-response relation compared to mGluR2/2” value [4] was “shifted to the left”, the “glutamate GIRK concentration-response relation compared to mGluR2/2” value ([4]; listed as Glutamate) was “left-shifted” and the “occupancy of the low FRET active state” value ([5]; 10 μM glutamate) was ~ 50%. For the same compound, the smFRET level ([5]; 10 mM glutamate) was ~ 0.2, the “minor low affinity component, share” value ([5]; smFRET) was ~ 20% and the “occupancy of low FRET activated conformation at top of biphasic relation” value ([5]; smFRET) was “full occupancy”. The “major high affinity component (single-subunit liganding), share of maximal activation” value ([5]; smFRET, top of first component at 1 mM glutamate) was ~ 80%.
